One compound from patent US7829728B2, “Diarymethyl and related compounds” (Theravance, Inc., priority 2003, dated 2010) can be followed below.

In this assay the test system is guinea pigs, pilocarpine-evoked salivation. The experiment in a line: Inhalation guinea pig salivation assay (Assay Test Procedure H). It is filed as in vivo. The conditions noted are these: ratio of anti-sialagogue ID50 to bronchoprotective ID50, guinea pig. On the procedure: Guinea pigs (Charles River, Wilmington, Mass.) weighing 200-350 g are acclimated to the in-house guinea pig colony for at least 3 days following arrival. Test compound or vehicle are dosed via inhalation (IH) over a 10 minute time period in a pie shaped dosing chamber (R+S Molds, San Carlos, Calif.). Test solutions are dissolved in sterile water and delivered using a nebulizer filled with 5.0 mL of dosing solution. Guinea pigs are restrained in the inhalation chamber for 30 minutes. During this time, guinea pigs are restricted to an area of approximately 110 sq. cm. This space is adequate for the animals to turn freely, reposition themselves, and allow for grooming. […] Upon completion of nebulization, guinea pigs are evaluated at 1.5, 6, 12, 24, 48, or 72 hrs after treatment.
Guinea pigs are anesthetized one hour before testing with an intramuscular (IM) injection of a mixture of ketamine 43.75 mg/kg, xylazine 3.5 mg/kg, and acepromazine 1.05 mg/kg at an 0.88 mL/kg volume. […] Saliva is collected for 10 minutes, at which point the gauze pad is weighed and the difference in weight recorded to determine the amount of accumulated saliva (in mg). The mean amount of saliva collected for animals receiving the vehicle and each dose of test compound is calculated. […] Results are calculated using result means (n=3 or greater). […]

Regarding `NC(=O)C(c1ccccc1)(c1ccccc1)[C@@H]1CCN(CCC(=O)NCCCCCNC[C@H](O)c2ccc(O)c3[nH]c(=O)ccc23)C1` [Example 3, 3-[(S)-3-(Carbamoyldiphenylmethyl)pyrrolidin-1-yl]-N-{5-[(R)-2-hydroxy-2-(8-hydroxy-2-oxo-1,2-dihydroquinolin-5-yl)ethylamino]pentyl}propionamide], the apparent lung-selectivity index entry was “greater than 5”.
